Earlier results, collected in patent US20050240051A1, “Dispersing agent or solubilizing agent containing calixarene compound” (Ajinomoto Co., Inc., priority 2002, published 2005).

## c12c3c4c5c1c1c6c7c2c2c8c3c3c9c4c4c%10c5c5c1c1c6c6c%11c7c2c2c7c8c3c3c8c9c4c4c9c%10c5c5c1c1c6c6c%11c2c2c7c3c3c8c4c4c9c5c1c1c6c2c3c41 [fullerene]
  solubility in hydrocarbon solvents and alcohol solvents: not more than 0.1 mg/ml
  solubility in toluene: about 3 mg/ml
At around normal temperature
  solubility in 1-methylnaphthalene: about 33 mg/ml
